Test results: patent US8735391B2, “Synthesis of functionalized octahydro-isoquinolin-1-one-8-carboxamides, octahydro-isoquinolin-1-one-8-carboxylic esters and analogs, and therapeutic methods” (University of Kansas, priority 2008, dated 2014)

Experiments:
KOR [1] = biological target: T1, KOR (Homo sapiens, UniProt P41145); assay: Opioid secondary binding, KOR (Tables 4, 5, 8, 9); details: Opioid secondary binding activity for Formula 10 analogs; read-out: KOR, Ki
KOR [2] = biological target: T1, KOR; assay: [35S]GTPγS binding functional agonist assay on membranes of CHO cells expressing hKOR (reference agonist U69593); format: biochemical; parameters: expressed in transfected cells; host or cells: CHO cells, stably transfected; crude membrane fractions; details: for KOR agonist (average percent efficacy relative to cognate agonist): test compound at 10 micromolar, N=4, reference agonist = 100%, CHO-cell line expressing hKOR; for Emax values relative to U69593: [35S]GTPγS data-fit top relative to reference agonist U69593
Method: The compounds prepared herein were tested for bioactivity with opioid receptors. Agonist assays: Data represent the percent efficacy (relative to cognate agonist) of the test compound at 10 micromolar. The response to a saturating concentration of a reference antagonist or to vehicle (usually none or negligible) is set to 0%. […] The response inhibition elicited by a saturating concentration of reference antagonist is set to 100%; the response inhibition (usually none or negligible) elicited by vehicle is set to 0%. The following tables provide data related to the bioactivity for opioid receptors of the compounds described herein.
Table 6 provides data that represent the average percent efficacy (N=4; relative to cognate agonist) of the test compound at 10 micromolar concentration. The response to a saturating concentration of cognate/reference agonist is set to 100%; the response to a saturating concentration of a reference antagonist or to vehicle (usually none or negligible) is set to 0%. All functional assays are performed on stably transfected CHO-cell lines expressing hKOR, hMOR or hDOR.
(§1) Serial dilutions of the test and reference compounds are made in binding buffer at 2× assay concentration (final assay concentrations ranging from 0.1 nM to 10 μM). Crude membrane fractions (1.8 to 3.5 cm2/well) (prepared from 10-cm plates by harvesting PBS-rinsed monolayers, resuspending and lysing in chilled, hypotonic 50 mM Tris-HCl, pH 7.4, centrifuging at 20,000×g, decanting the supernatant and storing at −80 degrees centigrade; typically, one 10-cm plate provides sufficient material for 24 wells) are resuspended in 1.2 ml of assay buffer containing 20 μM GDP, wheat germ agglutinin (WGA)-coated scintillation proximity beads (2.4 mg), and [35S]GTPγS (300 pM final). The suspension is then added (50 μl/well) to 50 μl of the 2× test or reference compounds (each concentration assayed in triplicate) in flexible transparent PET 96-well plates. The reaction plate is sealed and incubated for 90 min at room temperature, then centrifuged for 5 min at 216×g, and finally loaded into a Wallac MicroBeta TriLux counter. Non-specific [35S]GTPγS binding is assessed at the maximum concentration of reference agonist in the presence of 10 μM antagonist. The background signal is measured at 10 μM reference agonist in the presence of 10 μM unlabeled GTPγS. Raw data (dpm) representing total [35S]GTPγS binding (i.e., specific+non-specific binding) are calculated as a percentage of the maximum response by the reference agonist (in this case U69593).
as §1, with “GTPγS.” for “GTPγS. Raw data (dpm) representing total [35S]GTPγS binding (i.e., specific+non-specific binding) are calculated as a percentage of the maximum response by the reference agonist (in this case U69593).”

DOR = DOR (Homo sapiens, UniProt P41143); assay: Opioid secondary binding, DOR (Table 4); details: Opioid secondary binding activity for Formula 10 analogs
Chain of DOR (P41143 whole entry): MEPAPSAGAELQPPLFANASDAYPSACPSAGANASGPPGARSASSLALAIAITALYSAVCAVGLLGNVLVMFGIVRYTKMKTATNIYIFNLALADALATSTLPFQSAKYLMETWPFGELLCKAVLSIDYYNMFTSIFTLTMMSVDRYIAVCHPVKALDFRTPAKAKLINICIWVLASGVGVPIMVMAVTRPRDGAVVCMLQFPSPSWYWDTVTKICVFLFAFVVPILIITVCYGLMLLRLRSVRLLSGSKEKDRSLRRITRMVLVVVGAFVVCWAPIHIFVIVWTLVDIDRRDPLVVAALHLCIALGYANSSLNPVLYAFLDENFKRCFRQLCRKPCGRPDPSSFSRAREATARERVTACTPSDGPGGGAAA

T1 sequence (P41145 whole entry): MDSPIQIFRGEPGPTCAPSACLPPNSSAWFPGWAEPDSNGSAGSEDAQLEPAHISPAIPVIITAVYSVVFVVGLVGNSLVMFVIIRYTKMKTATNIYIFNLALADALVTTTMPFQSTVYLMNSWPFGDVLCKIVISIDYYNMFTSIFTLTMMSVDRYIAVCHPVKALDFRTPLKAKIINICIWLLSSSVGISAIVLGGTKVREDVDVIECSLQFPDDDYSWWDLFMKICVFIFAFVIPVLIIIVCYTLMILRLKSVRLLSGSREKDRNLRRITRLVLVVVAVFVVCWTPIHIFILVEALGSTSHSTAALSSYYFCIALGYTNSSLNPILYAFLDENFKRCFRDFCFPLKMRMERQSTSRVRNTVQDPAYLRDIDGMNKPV

Row | SMILES | Ki (KOR [1]) [µM] | KOR agonist (average percent efficacy relative to cognate agonist) (KOR [2]) [%] | Ki (DOR) [µM] | Emax values relative to U69593 (KOR [2]) [%]
1 | O=C(Nc1ccc(Cl)cc1Cl)[C@@H]1CC=C[C@@H]2CCN(Cc3ccc(Cl)c(Cl)c3)C(=O)[C@@H]21 (racemic) [compound 8951] | 2.44 | 23.2 |  | 
2 | O=C(NCc1cccnc1)[C@@H]1CC=C[C@@H]2CCN(C3CC3)C(=O)[C@@H]21 (racemic) [compound 8930] |  | 4 |  | 
3 | O=C(Nc1ccc([N+](=O)[O-])c(C(F)(F)F)c1)[C@@H]1CC=C[C@@H]2CCN(Cc3ccccc3)C(=O)[C@@H]21 (racemic) [compound 11932] | 0.2 |  | 0.041 | 
4 | O=C(Nc1ccc(Br)c(C(F)(F)F)c1)[C@@H]1CC=C[C@@H]2CCN(Cc3cccc(Br)c3)C(=O)[C@@H]21 (racemic) [compound 12171] | 0.694 |  | 0.503 | 
5 | CC(c1ccccc1)N1CCC2C=CCC(C(=O)NC3CCCCC3)C2C1=O (mixture of isomers) [compound 12163] | 5.91 |  | 1.16 | 
6 | O=C(NCc1cccc(Br)c1)[C@@H]1CC=C[C@@H]2CCN(Cc3ccccc3)C(=O)[C@@H]21 (racemic) [compound 11955] | 3.27 |  | 0.438 | 
7 | O=C(Nc1ccc(I)cc1)[C@@H]1CC=C[C@@H]2CCN(Cc3ccccc3)C(=O)[C@@H]21 (racemic) [compound 11954] | 2.83 |  | 0.194 | 
8 | O=C(NCc1ccc(Cl)c(Cl)c1)[C@@H]1CC=C[C@@H]2CCN(Cc3ccccc3)C(=O)[C@@H]21 (racemic) [compound 12148] | 2.78 |  | 0.644 | 
9 | O=C(Nc1cccc(Cl)c1)[C@@H]1CC=C[C@@H]2CCN(CC3CCCCC3)C(=O)[C@@H]21 (racemic) [compound 11888] | 0.068 |  |  | 70
10 | O=C(NCc1cccnc1)[C@@H]1CC=C[C@@H]2CCN(Cc3ccc(Cl)c(Cl)c3)C(=O)[C@@H]21 (racemic) [compound 8932] | 0.693 | 74.6 |  | 
11 | CCCCN1CC[C@H]2C=CC[C@@H](C(=O)NCCc3ccccc3)[C@H]2C1=O (racemic) [compound 8918] | 3.27 | 12.6 |  | 
12 | O=C(Nc1ccccc1)[C@@H]1CC=C[C@@H]2CCN(C3CC3)C(=O)[C@@H]21 (racemic) [compound 8938] | 1.4 | 21.8 |  | 
13 | O=C(Nc1ccc(Cl)cc1Cl)[C@@H]1CC=C[C@@H]2CCN(C3CCCCC3)C(=O)[C@@H]21 (racemic) [compound 8949] | 0.506 | 67.9 |  | 
14 | CCCCN1CC[C@H]2C=CC[C@@H](C(=O)NC3CCCCC3)[C@H]2C1=O (racemic) [compound 8923] | 1.03 | 67.6 |  | 
15 | Cc1ccc(NC(=O)[C@@H]2CC=C[C@@H]3CCN(Cc4ccccc4)C(=O)[C@@H]32)cc1Cl (racemic) [compound 11931] | 2.57 |  | 0.061 | 
16 | CCCCN1CC[C@H]2C=CC[C@@H](C(=O)Nc3ccc(OC)cc3)[C@H]2C1=O (racemic) [compound 8946] | 5.04 | 23.5 |  | 
17 | O=C(Nc1ccc(Cl)c(C(F)(F)F)c1)[C@@H]1CC=C[C@@H]2CCN(C3CC3)C(=O)[C@@H]21 (racemic) [compound 8954] | 0.493 | 66.4 |  | 
18 | O=C(Nc1ccc(Cl)cc1C(F)(F)F)[C@@H]1CC=C[C@@H]2CCN(c3ccccc3)C(=O)[C@@H]21 (racemic) [compound 11864] | 0.068 |  |  | 119
19 | O=C([C@@H]1CC=C[C@@H]2CCN(C3CC3)C(=O)[C@@H]21)N1CCN(c2ccccc2)CC1 (racemic) [compound 8913] | 3.19 | 27.5 |  | 

Row | SMILES | Ki (KOR [1]) [µM] | KOR agonist (average percent efficacy relative to cognate agonist) (KOR [2]) [%] | Ki (DOR) [µM] | Emax values relative to U69593 (KOR [2]) [%]
20 | COc1ccc(NC(=O)[C@@H]2CC=C[C@@H]3CCN(C4CC4)C(=O)[C@@H]32)cc1 (racemic) [compound 8944] |  | 1 |  | 
21 | O=C(NC1CCCCC1)[C@@H]1CC=C[C@@H]2CCN(C3CCCCC3)C(=O)[C@@H]21 (racemic) [compound 8922] | 0.167 | 8 |  | 
22 | O=C(Nc1ccc(Cl)cc1Cl)[C@@H]1CC=C[C@@H]2CCN(C3CC3)C(=O)[C@@H]21 (racemic) [compound 8948] |  | 29.6 |  | 
23 | COc1ccc(CNC(=O)[C@@H]2CC=C[C@@H]3CCN(C4CC4)C(=O)[C@@H]32)cc1 (racemic) [compound 8925] |  | 5.4 |  | 
24 | O=C(NC1CCCCC1)[C@@H]1CC=C[C@@H]2CCN(C3CC3)C(=O)[C@@H]21 (racemic) [compound 8921] |  | 4.1 |  | 
25 | O=C(NCCc1ccccc1)[C@@H]1CC=C[C@@H]2CCN(C3CC3)C(=O)[C@@H]21 (racemic) [compound 8917] |  | 6.6 |  | 
26 | O=C(Nc1ccc(Cl)c(C(F)(F)F)c1)[C@@H]1CC=C[C@@H]2CCN(Cc3cccc(Br)c3)C(=O)[C@@H]21 (racemic) [compound 12170] | 1.46 |  | 1.72 | 
27 | COc1ccccc1CN1CC[C@H]2C=CC[C@@H](C(=O)Nc3ccc(C)c(C(F)(F)F)c3)[C@H]2C1=O (racemic) [compound 13481] | 1.9 |  | 1.34 | 
28 | Cc1ccc(NC(=O)[C@@H]2CC=C[C@@H]3CCN(Cc4ccccc4)C(=O)[C@@H]32)cc1C(F)(F)F (racemic) [compound 13475] | 1.16 |  | 0.039 | 
29 | O=C(Nc1ccc(Cl)c(C(F)(F)F)c1)[C@@H]1CC=C[C@@H]2CCN(Cc3ccc(Cl)c(Cl)c3)C(=O)[C@@H]21 (racemic) [compound 8957] |  | 33.1 |  | 
30 | O=C(Nc1ccc(Br)c(C(F)(F)F)c1)[C@@H]1CC=C[C@@H]2CCN(Cc3ccccc3F)C(=O)[C@@H]21 (racemic) [compound 13478] | 0.299 |  | 0.022 | 
31 | CCCCN1CC[C@H]2C=CC[C@@H](C(=O)N3CCOCC3)[C@H]2C1=O (racemic) [compound 8911] |  | 8.3 |  | 
32 | CCCCN1CC[C@H]2C=CC[C@@H](C(=O)NCc3ccc(OC)cc3)[C@H]2C1=O (racemic) [compound 8927] |  | 8.7 |  | 
33 | CCCCN1CC[C@H]2C=CC[C@@H](C(=O)N3CCN(c4ccccc4)CC3)[C@H]2C1=O (racemic) [compound 8914] |  | 9.9 |  | 
34 | COc1ccc(CNC(=O)[C@@H]2CC=C[C@@H]3CCN(Cc4ccc(OC)c(OC)c4)C(=O)[C@@H]32)cc1 (racemic) [compound 8929] |  | 3.6 |  | 
35 | O=C(Nc1ccc(Cl)cc1)[C@@H]1CC=C[C@@H]2CCN(Cc3ccccc3)C(=O)[C@@H]21 (racemic) [compound 12102] | 5.03 |  | 0.165 | 
36 | CC(c1ccccc1)N1CCC2C=CCC(C(=O)Nc3ccccc3)C2C1=O (mixture of isomers) [compound 12164] | 4.78 |  | 1.38 | 
37 | O=C([C@@H]1CC=C[C@@H]2CCN(C3CC3)C(=O)[C@@H]21)N1CCOCC1 (racemic) [compound 8909] |  | 7.8 |  | 
